Experimental data taken from PubChem BioAssay AID1902 (Broad Institute, 2009).
The source made the active and inactive calls.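 Rule for the calls: active = EC50 no more than a set limit of log units above the highest dose; inactive = the rest.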

Molecular target: S. pyogenes SKKanGAS, kanamycin survival, BacTiterGlo, 6 h
Assay: S. pyogenes SKKanGAS kanamycin growth inhibitors – SKKanGAS strain, luminescence, dose confirmation, streptokinase promoter inhibitor project, dose response (AID 1902);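 note: lower survival reflects blocked streptokinase promoter driving kanamycin resistance gene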

Compound | EC50
CCOC(=O)c1sc(=S)n2c1[nH]c(=O)c1ccc(C(=O)OC)cc12 | 3.81 µM
Cc1ccc(/C=C/C(=O)c2ccccc(=O)c2O)c(C)c1 | 3.57 µM
O=C(Nc1nccs1)c1sc2ccccc2c1Cl | > 15 µM (inactive)
Nc1c(-c2ccccc2)c(CSc2nc3ccccc3[nH]2)nn1-c1cccc(Cl)c1 | 1.51 µM
CC(C)/C(=N/Nc1ccccc1[N+](=O)[O-])c1ccccc1 | 6.51 µM
O=C(CSc1nc(N2CCOCC2)nc(N2CCOCC2)n1)Nc1cccc(C(F)(F)F)c1 | > 15 µM (inactive)
COc1ccc(Oc2nc(C(F)(F)F)nc3ccccc23)cc1 | 7.14 µM
O=C(N/N=C/c1c(O)n(Cc2ccccc2)c(=O)[nH]c1=O)c1ccccc1 | 8.62 µM
CN1c2ccsc2/C(=N/Nc2ccccc2)CS1(=O)=O | 2.21 µM
CCCCNC(=O)c1onc(CSc2ccc(C(C)C)cc2)c1C(=O)O | 4.13 µM
CN(C)[C@@H]1C(=O)C(C(N)=O)=C(O)[C@@]2(O)C(=O)C3=C(O)c4c(O)cccc4[C@@](C)(O)C3C[C@@H]12 (some centres not stated) | 0.096 µM
Cc1ccnc(NC(c2ccsc2)c2ccc3ccc(C)nc3c2O)c1 (configuration not stated) | 11.7 µM
O=C(CSc1nc(Nc2ccccc2)nc(N2CCOCC2)n1)Nc1cc(Cl)ccc1O | 4.13 µM
O=C(Cc1ccccc1)N/N=C/c1cc(Br)cc(Cl)c1O | 1.52 µM
CC(/C=C/C=C/c1ccccc1)=N/NC(=O)c1ccc2c(c1)OCCO2 | > 15 µM (inactive)
O=Nc1c2cc(-c3ccccc3)[nH]nc-2c2ccccc12 | 6.43 µM
O=C(/C=C/c1ccco1)Nc1nc(-c2ccccn2)cs1 | 0.362 µM
O=C(NNC(=S)NC(=O)c1cccc([N+](=O)[O-])c1)c1ccc(Br)cc1 | 2.07 µM
CC(C)N=c1cc2n(-c3ccc(Cl)cc3)c3ccccc3nc-2cc1Nc1ccc(Cl)cc1 | 1.24 µM
Cc1ccc(C(=O)NNC(=S)NC(=O)c2ccc(Cl)cc2Cl)cc1 | 0.09 µM
CCOC(=O)CC(NC(=O)CCS(=O)(=O)c1ccc2c(c1)n(C)c(=O)c(=O)n2C)c1ccc(C)cc1 (configuration not stated) | > 15 µM (inactive)
Oc1c(C(Nc2nc3ccccc3s2)c2ccco2)ccc2cccnc12 (configuration not stated) | 2.98 µM

Compound | EC50
CC(=O)N1CCN(c2ccccc2NC(=O)c2cccs2)CC1 | > 15 µM (inactive)
O=C(OCc1ccc(-c2ccccc2)cc1)c1cccc(O)c1 | 6.29 µM
CCCCOC(=O)c1ccc(NC(=S)N2CCN(c3ncc4c(=O)c(C(=O)O)cn(CC)c4n3)CC2)cc1 | 2.04 µM
O=C(CCc1ccccc1)Nc1nnc(-c2ccc3c(c2)CCCC3)o1 | 1.59 µM
Fc1cccc2sc(Nc3nnc(-c4ccco4)o3)nc12 | 0.307 µM
CN(C)CCNC=C(C(=O)Nc1ccc(Cl)cc1Cl)C(=O)Nc1ccc(Cl)cc1Cl | 3.38 µM
O=C(/C=C/c1ccccc1)NC(NC(=S)Nc1cccc(Cl)c1)C(Cl)(Cl)Cl (configuration not stated) | 1.85 µM
Cc1cccc(NC(=S)Nc2ccc(Cl)c(Cl)c2)c1 | 9.6 µM
O=C1NC[C@@H](Cc2cccc3ccccc23)N(CCCCC2CCCCC2)C1=O | 3.93 µM
COc1c(N2CCN(C(=S)NC3CC4CCC3C4)C(C)C2)c(F)cc2c(=O)c(C(=O)O)cn(C3CC3)c12 (configuration not stated) | 3.09 µM
CN(C)c1nc(SCc2ccccc2Cl)nc2c1CCCC2 | 6.27 µM
CCOc1cc(CNc2ccc3c(c2)CCC3)ccc1OC | > 15 µM (inactive)
O=C(CC1CC2CCC1C2)Nc1nc(-c2ccccn2)cs1 (configuration not stated) | 2.4 µM
CN(C)CCCn1c(SCC(=O)Nc2nc(-c3cccc(Br)c3)cs2)nc2ccccc2c1=O | 4.73 µM
Cc1ccc(/C=N/NC(=O)C2=NNC(c3ccccc3)(c3ccccc3)C2)c(O)c1 | 4.01 µM
Cc1ccc(S(=O)(=O)Nc2cccc3cccnc23)c([N+](=O)[O-])c1 | 0.632 µM
COc1ccc(C(=O)c2c(C(F)(F)F)oc3c2C(=O)c2ccccc2C3=O)cc1OC | 0.746 µM
Cn1c(Oc2ccccc2NCc2cc(Br)ccc2O)cc(=O)n(C)c1=O | 4.46 µM
Oc1cccc(-c2nc3ccc4ccccc4c3c3c2CCC3)c1 | 8.4 µM
Cc1nn(C(=O)c2cccnc2)c(C)c1Sc1ccc(Br)cc1 | 4.36 µM
Fc1ccc(N2CCN(Cc3cn[nH]c3-c3ccccc3)CC2)cc1 | > 15 µM (inactive)
COc1cc(C(=O)NS(=O)(=O)c2ccccc2C)ccc1Cc1cn(C)c2ccc(NC(=O)OC3CCCC3)cc12 | 2.05 µM

Compound | EC50
COCCOC(=O)c1c(C)nc(SCC(=O)Nc2ccc(C)cc2)c(C#N)c1-c1ccco1 | 6.68 µM
Brc1ccccc1C1Nc2cccc3cccc(c23)N1 | 5.03 µM
COc1ccc(Nc2nc(NN)nc(Nc3ccc(OC)cc3)n2)cc1 | 6.02 µM
Cc1ccc(CN2CC(C(=O)Nc3nnc(SCc4c(Cl)cccc4Cl)s3)CC2=O)cc1 (configuration not stated) | 4.87 µM
COc1ccc(OCC(=O)NNC(=S)NC(=O)C2CC2)cc1 | 4.11 µM
CCCCCCCCCC[N+](C)(C)CC/C=C1/c2ccccc2Sc2ccc(Cl)cc21 | 2.31 µM
c1ccc(-c2nc(C3CCCCC3)c3sccc3n2)cc1 | 3.31 µM
CCc1c(O)nc(SCC(=O)Nc2nc3ccccc3s2)n(C2CCCCC2)c1=O | 8.89 µM
Cc1cccc(/C=C2/S/C(=N/N=C3\CC4CCC3(C)C4(C)C)NC2=O)c1 (configuration not stated) | 1.19 µM
O=C(Nc1nc(-c2ccccn2)cs1)c1ncc(Cl)c(Cl)c1Cl | 0.771 µM
Cc1ccccc1-c1cc(C(=O)Nc2sc(C(=O)OC(C)C)c(C)c2C#N)c2ccccc2n1 | 5.49 µM
Cc1nnc(NC(=O)c2ccc(S(=O)(=O)N3CC(C)CC(C)C3)cc2)o1 (configuration not stated) | 5.82 µM
CC(C)Cc1csc(NC(=O)c2ccc(Br)cc2)c1C(=O)O | 1.57 µM
CC1(C)N=C(N)N=C(N)N1c1ccccc1 | 0.325 µM
CCn1c(=S)sc2c(=O)[nH]c(SCC(=O)Nc3cc(OC)ccc3OC)nc21 | 6.58 µM
Oc1ccc(/C=N/Nc2nc(N3CCCCCC3)nc(N3CCCCCC3)n2)c(O)c1 | 1.73 µM
Cc1cc(C)c2ccc(NN)nc2c1O | 6.08 µM
O=C(N/N=C/c1cc([N+](=O)[O-])ccc1O)c1cccc(NC(=O)c2cccc(Cl)c2)c1 | 4.69 µM
CCOc1ccc(NC(=O)c2ccc3c(=O)n(-c4ccc(OC)cc4OC)c(=S)[nH]c3c2)cc1 | 7.86 µM
Cc1nn(-c2ccccc2)c(C)c1/C=N/n1c(-c2ccc(C(C)(C)C)cc2)n[nH]c1=S | 2.62 µM
CC(=O)Oc1c(-c2ccc(Br)o2)oc2ccccc2c1=O | 3.34 µM
O=C(NC(=S)NNC(=O)c1ccccc1O)c1ccccc1 | 2.35 µM

Compound | EC50
Cc1ccc(C(=O)n2c(N)nc3ccccc32)cc1 | 4.29 µM
COc1ccc(/C=C2/S/C(=N/N=C3\CC4CCC3(C)C4(C)C)NC2=O)cc1 (configuration not stated) | 10.7 µM
CC(C)(C)c1ccc(CSc2cnn(C(C)(C)C)c(=O)c2Cl)cc1 | 4.99 µM
CCCC(=O)NC(c1ccc(C)cc1)c1ccc2cccnc2c1O (configuration not stated) | 4.16 µM
CCCn1c(=O)c(C(=O)N/N=C/c2ccc(F)cc2)c(O)c2ccccc21 | 3.19 µM
Cc1nn(Cc2ccc(C(=O)Nc3nc4c(C)cccc4s3)o2)c(C)c1Br | 2.85 µM
O=C(CNc1cccc2ccccc12)N/N=C/c1ccc[nH]1 | > 15 µM (inactive)
COc1ccccc1N1CCN(C(=O)/C=C/c2ccc(C)cc2)CC1 | > 15 µM (inactive)
N#CC(C(=O)C12CC3CC(CC(C3)C1)C2)c1nc2ccccc2[nH]1 (configuration not stated) | 3.23 µM
C=CCn1c(O)c(C(C)=Nc2ccc(N(CC)CC)cc2)c(=O)[nH]c1=O | 5.73 µM
Cc1cc(C)c(C(=O)Nc2ccc(Br)c(C(F)(F)F)c2)c(C)c1 | 2.79 µM
C=CCn1c(O)c(C(CC)=Nc2ccc(N(C)C)cc2)c(=O)[nH]c1=O | 3.05 µM
CSc1nc(SCC(=O)O)c2sc3nc(-c4ccccc4)c4c(c3c2n1)CCC4 | 1.14 µM
CCC(=O)Oc1ccc(-c2nc(-c3cccnc3)no2)cc1 | 4.3 µM
CCC(NC(=S)NC1CCCCC1)c1ccc(C(C)C)cc1 (configuration not stated) | 5.2 µM
CCCc1nc2ccccc2c(=O)n1NC(=O)c1c(O)c2cccc3c2n(c1=O)CCC3 | 2.6 µM
Cc1ccc(/C=C/C2=NN(Cc3ccc(Cl)c(Cl)c3)C(=O)CC2)cc1 | 7.83 µM
Cc1cc(C)c2nc(NNC(=O)c3ccc(S(=O)(=O)N4CCc5ccccc5C4)cc3)sc2c1 | 0.538 µM
COC(=O)c1ccc(/C=C/c2ccc3cccc(OC(C)=O)c3n2)cc1 | 1.18 µM
Oc1ccc(N=Nc2ccc3c(c2)OCCO3)c2cccnc12 | 0.257 µM
Cc1cc(Br)c(OCc2ccc(C(=O)N/N=C3\CC4CC=CC34)cc2)c(Br)c1 (configuration not stated) | 4 µM
COc1cccc(OC)c1C(=O)Nc1cc(C)nn1-c1nc2ccccc2[nH]1 | 6.26 µM

Compound | EC50
COc1ccccc1-c1cc(-c2ccccc2)nc(SCC(=O)O)c1C#N | 1.97 µM
COc1ccc(O)c(CN2CCC(n3nccc3NC(=O)CCOc3ccccc3)CC2)c1 | > 15 µM (inactive)
CC(/C=C1\SC(=S)N(NS(=O)(=O)c2ccccc2)C1=O)=C\c1ccccc1 | 5.38 µM
CC(=O)OCC1=C(C(=O)O)N2C(=O)C(NC(=O)Cn3nc(C(F)F)c(Cl)c3C)C2SC1 (configuration not stated) | < 0.06 µM
Cc1cc(C)cc(-n2c(C)cc(/C=C3\C(=N)N4N=C(CC(C)C)SC4=NC3=O)c2C)c1 | 2.67 µM
CC(C)(C)c1ccc2c(c1)OC(C(=O)N/N=C/c1ccc([N+](=O)[O-])o1)CO2 (configuration not stated) | 3.92 µM
COc1cccc(/C=C/C(=O)OCC(=O)Nc2nnc(-c3ccccc3)o2)c1 | 4.21 µM
O=C(CN1c2ccccc2Sc2ccccc21)NNC(=S)Nc1ccc(Cl)cc1 | 2.67 µM
O=C(Nc1nc2ccc(SC(F)F)cc2s1)c1ccc(NS(=O)(=O)c2ccc(F)c(F)c2)cc1 | 1.89 µM
Cc1cc(C(=O)N/N=C/c2ccc([N+](=O)[O-])s2)n[nH]1 | 2.39 µM
CC(C)c1ccc(-c2nc(N3CCCC3)nc3n[nH]c(N)c23)cc1 | 8.74 µM
O=[N+]([O-])c1cc(Cl)cc(/C=N\Nc2ccccn2)c1O | 2.89 µM
CCOc1ccc(-n2c(C)cc(/C=C3/C(=N)N4C(=NC3=O)SN=C4S(C)(=O)=O)c2C)cc1 | 0.938 µM
CCCC(=O)NC(c1ccc2c(c1)OCO2)c1cc(Cl)c2cccnc2c1O (configuration not stated) | 1.17 µM
CCCCCn1c(=O)c(C(=O)Nc2cnccn2)c(O)c2ccccc21 | 3.18 µM
CCCCn1c(-c2ccco2)nc2oc3ccccc3c(=O)c2c1=O | 15.1 µM
CC1(C)S[C@@H]2[C@H](NC(=O)C(NC(=O)N3CCNC3=O)c3ccccc3)C(=O)N2[C@H]1C(=O)O (some centres not stated) | < 0.06 µM
O=C(Nc1ccc2c(c1)CCC2)c1cc(S(=O)(=O)Nc2ccc(F)cc2)c(Cl)cc1Cl | 4.04 µM
COc1cccc(-c2nn(-c3ccccc3)cc2C(=O)Nc2nccs2)c1 | 2.98 µM
